According to US20040254162A1, “Oxazolidinone derivatives as antimicrobials” (priority 2001, published 2004):
≈ marks a conversion by molar mass, not a printed value. Where “and” joins values, the source holds several entries; their conditions need not be identical. Equal values may be shown once.

Assays:
VRE 6A (Ent. faecium 6A) = experiment: MIC, agar incorporation method; details: agar incorporation
S. aureus = experiment: Summary of in vitro activity (MIC); details: S. aureus
MRSA 33 = experiment: MIC, agar incorporation method; details: agar incorporation
S. aureus ATCC 25923 = experiment: MIC, agar incorporation method; details: agar incorporation
Ent. faecalis ATCC 29212 = experiment: MIC, agar incorporation method; details: agar incorporation
MRSA 562 [1] = experiment: MIC, agar incorporation method; details: for MIC: MRSA 562, Table 5
E. faecalis = experiment: Summary of in vitro activity (MIC); details: E. faecalis
Strep. pyog. ATCC 19615 = experiment: MIC, agar incorporation method; details: agar incorporation
G +ve bacteria = experiment: Summary of in vitro activity (MIC)
MRSA 15187 = experiment: MIC, agar incorporation method; details: agar incorporation
Strep. pne. ATCC 6303 = experiment: MIC, agar incorporation method; details: agar incorporation
S. pneumoniae = experiment: Summary of in vitro activity (MIC); details: S. pneumoniae
S. pneum AB 34 = experiment: MIC, agar incorporation method; details: agar incorporation
MRSA 562 [2] = experiment: In vivo activity against MRSA 562 (ED50); set-up: species or system Methicillin Resistant Staphylococcus aureus; details: PO; MRSA 562 infection
Prevotella bivia = experiment: Agar dilution MIC, anaerobes; assay type: cell-based; details: Prevotella bivia; single isolate, anaerobic agar dilution; read-out: MIC Prevotella bivia
Porphyromonas gingivalis = experiment: Agar dilution MIC, anaerobes; assay type: cell-based; details: Porphyromonas gingivalis; single isolate, anaerobic agar dilution; read-out: MIC Porphyromonas gingivalis
Fusobacterium montiferum = experiment: Agar dilution MIC, anaerobes; assay type: cell-based; details: single isolates, anaerobic agar dilution
Clostridium difficile = experiment: Agar dilution MIC, anaerobes; assay type: cell-based; details: single isolates, anaerobic agar dilution
Prevotella intermedia = experiment: Agar dilution MIC, anaerobes; assay type: cell-based; details: Prevotella intermedia, single isolates, anaerobic agar dilution; read-out: MIC Prevotella intermedia
anaerobic bacteria = experiment: Agar dilution method for anaerobic bacteria, summary; assay type: cell-based; details: anaerobes
Bacteroides fragilis = experiment: Agar dilution MIC, anaerobes; assay type: cell-based; details: Bacteroides fragilis, single isolates, anaerobic agar dilution; read-out: MIC Bacteroides fragilis
[3] = system: Porphyromonas asaccharolytica; experiment: Agar dilution MIC, anaerobes; assay type: cell-based; details: Porphyromonas asaccharolytica; single isolate, anaerobic agar dilution; read-out: MIC Porphyromonas asaccharolytica
[4] = system: Peptostreptococcus prevotii; experiment: Agar dilution MIC, anaerobes; assay type: cell-based; details: single isolates, anaerobic agar dilution
Clostridium perfringens = experiment: microbe, parasite or virus in culture; assay type: cell-based; details: Clostridium perfringens, read-out: MIC Clostridium perfringens, single isolates, anaerobic agar dilution
Clostridium camis = experiment: Agar dilution MIC, anaerobes; assay type: cell-based; details: Clostridium; single isolates, anaerobic agar dilution; read-out: MIC Clostridium camis
Fusobacterium nucleatum = experiment: Agar dilution MIC, anaerobes; assay type: cell-based; details: single isolates, anaerobic agar dilution
P. acnes = experiment: Agar dilution MIC, anaerobes; assay type: cell-based; details: single isolates, anaerobic agar dilution
[5] = system: Peptostreptococcus tetradius; experiment: Agar dilution MIC, anaerobes; assay type: cell-based; details: single isolates, anaerobic agar dilution
Eubacterium leutum = experiment: Agar dilution MIC, anaerobes; assay type: cell-based; details: single isolates, anaerobic agar dilution
[6] = system: Prevotella (Bacteroides) disiens; experiment: Agar dilution MIC, anaerobes; assay type: cell-based; details: single isolates, anaerobic agar dilution; read-out: MIC Prevotella (Bacteroides) disiens
Fusobacterium necrogenes = experiment: Agar dilution MIC, anaerobes; assay type: cell-based; details: Fusobacterium necrogenes; single isolate, anaerobic agar dilution; read-out: MIC Fusobacterium necrogenes

CC(=O)NC[C@H]1CN(c2ccc(N3CCN(Cc4ccc([N+](=O)[O-])o4)CC3)c(F)c2)C(=O)O1 [Compound No. 15, (S)-N-[[3-[3-fluoro-4-[N-1-[4-{2-furyl-(5-nitro)methyl}]piperazinyl]phenyl]-2-oxo-5-oxazolidinyl]methyl]acetamide]
MIC VRE 6A (VRE 6A (Ent. faecium 6A)): 1 µg/mL (≈ 2.17 µM) | Geometric Mean of in vitro activity (MIC) (S. aureus): 1.63 µg/mL | MIC50 (S. aureus; Number 8): 2 µg/mL (≈ 4.33 µM) | MIC90 (S. aureus; Number 8): 2 µg/mL (≈ 4.33 µM) | MIC MRSA 33 (MRSA 33): 2 µg/mL (≈ 4.33 µM) | MIC S. aureus 25923 (S. aureus ATCC 25923): 2 µg/mL (≈ 4.33 µM) | MIC E. faecalis 29212 (Ent. faecalis ATCC 29212): 2 µg/mL (≈ 4.33 µM) | MIC (MRSA 562 [1]): 2 µg/mL (≈ 4.33 µM) | MIC MRSA 562 (MRSA 562 [1]; agar incorporation, Table 1): 2 µg/mL (≈ 4.33 µM) | Geometric Mean of in vitro activity (MIC) (E. faecalis): 1.6 µg/mL | MIC50 (E. faecalis; Number 7): 2 µg/mL (≈ 4.33 µM) | MIC90 (E. faecalis; Number 7): 2 µg/mL (≈ 4.33 µM) | MIC S. pyogenes 19615 (Strep. pyog. ATCC 19615): 1 µg/mL (≈ 2.17 µM) | MIC50 (G +ve bacteria; G +ve, Number 49): 1 µg/mL (≈ 2.17 µM) | MIC90 (G +ve bacteria; G +ve, Number 49): 2 µg/mL (≈ 4.33 µM) | Geometric Mean of in vitro activity (MIC) (G +ve bacteria; Gram + ve): 1.08 µg/mL | MIC MRSA 15187 (MRSA 15187): 2 µg/mL (≈ 4.33 µM) | MIC S. pneum 6303 (Strep. pne. ATCC 6303): 1 µg/mL (≈ 2.17 µM) | Geometric Mean of in vitro activity (MIC) (S. pneumoniae): 1.04 µg/mL | MIC50 (S. pneumoniae; Number 19): 2 µg/mL (≈ 4.33 µM) | MIC90 (S. pneumoniae; Number 19): 4 µg/mL (≈ 8.67 µM) | MIC S. pneum AB 34 (S. pneum AB 34): 2 µg/mL (≈ 4.33 µM) | ED50 (mg/kg body weight) PO (MRSA 562 [2]): 4.33 mg/kg body weight

CC(=O)NC[C@H]1CN(c2ccc(N3CCN(Cc4ccc(NC=O)o4)CC3)c(F)c2)C(=O)O1 [Compound No. 67]
MIC (MRSA 562 [1]): 2 µg/mL (≈ 4.35 µM) | ED50 (mg/kg body weight) PO (MRSA 562 [2]): >25 mg/kg body weight

CC(=O)NC[C@H]1CN(c2ccc(N3CC4C(C3)C4N(C)C(=O)Cc3cccs3)c(F)c2)C(=O)O1 (stereo partly drawn) [Compound No. 71, (S)-N-[[3-[3-Fluoro[4-[3-(1α,5α,6α)-6-[N-(2-thiopheneacetyl)-N-methyl]amino]-3-azabicyclo-[3.1.0]hexane]phenyl]-2-oxo-5-oxazolidinyl]methyl]acetamide]
MIC VRE 6A (VRE 6A (Ent. faecium 6A)): 8 µg/mL and 4 µg/mL | MIC MRSA 33 (MRSA 33): 8 µg/mL and 4 µg/mL | MIC S. aureus 25923 (S. aureus ATCC 25923): 8 µg/mL and 4 µg/mL | MIC E. faecalis 29212 (Ent. faecalis ATCC 29212): 8 µg/mL and 4 µg/mL | MIC (MRSA 562 [1]): 4 µg/mL (≈ 8.22 µM) | MIC S. pyogenes 19615 (Strep. pyog. ATCC 19615): 4 µg/mL and 2 µg/mL | MIC MRSA 15187 (MRSA 15187): 8 µg/mL and 4 µg/mL | MIC S. pneum 6303 (Strep. pne. ATCC 6303): 4 µg/mL (≈ 8.22 µM) | MIC S. pneum AB 34 (S. pneum AB 34): 2 µg/mL and 4 µg/mL | ED50 (mg/kg body weight) PO (MRSA 562 [2]): >25 mg/kg body weight

COc1c(N2CCNC(C)C2)c(F)cc2c(=O)c(C(=O)O)cn(C3CC3)c12 (centres unmarked) [Gatifloxacin]
MIC (Prevotella bivia): 2 µg/mL (≈ 5.33 µM) | MIC (Porphyromonas gingivalis): 0.06 µg/mL (≈ 0.16 µM) | MIC (Fusobacterium montiferum; Fusobacterium, read-out: MIC Fusobacterium montiferum): 0.25 µg/mL (≈ 0.666 µM) | MIC Fusobacterium montiferum (Fusobacterium montiferum): 0.5 µg/mL (≈ 1.33 µM) | MIC (Clostridium difficile; Clostridioides difficile, read-out: MIC Clostridium difficile): 1 µg/mL (≈ 2.66 µM) | MIC Clostridium difficile (Clostridium difficile): 2 µg/mL (≈ 5.33 µM) | MIC (Prevotella intermedia): 0.25 µg/mL (≈ 0.666 µM) | Geometric Mean (anaerobic bacteria): 0.659 µg/mL | MIC Range (anaerobic bacteria): 0.06 to 32 µg/mL | MIC50 (anaerobic bacteria; Wilkins Chalgren agar, 48 hour, read-out: MIC50): 0.5 µg/mL (≈ 1.33 µM) | MIC90 (anaerobic bacteria; Wilkins Chalgren agar, 48 hour, read-out: MIC90): 2 µg/mL (≈ 5.33 µM) | MIC (Bacteroides fragilis): 1 µg/mL (≈ 2.66 µM) | MIC [3]: 0.25 µg/mL (≈ 0.666 µM) | MIC ([4]; Anaerococcus prevotii, read-out: MIC Peptostreptococcus prevotii): 0.5 µg/mL (≈ 1.33 µM) | MIC Peptostreptococcus prevotii [4]: 1 µg/mL (≈ 2.66 µM) | MIC (Clostridium perfringens): 1 µg/mL (≈ 2.66 µM) | MIC (Clostridium camis): 0.25 µg/mL (≈ 0.666 µM) | MIC (Fusobacterium nucleatum; Fusobacterium nucleatum, read-out: MIC Fusobacterium nucleatum): 0.25 µg/mL (≈ 0.666 µM) | MIC Fusobacterium nucleatum (Fusobacterium nucleatum): 0.5 µg/mL (≈ 1.33 µM) | MIC (P. acnes; Cutibacterium acnes, read-out: MIC P. acnes): 0.25 µg/mL (≈ 0.666 µM) | MIC P. acnes (P. acnes): 0.125 µg/mL (≈ 0.333 µM) | MIC ([5]; Anaerococcus tetradius, read-out: MIC Peptostreptococcus tetradius): 1 µg/mL (≈ 2.66 µM) | MIC Peptostreptococcus tetradius [5]: 0.5 µg/mL (≈ 1.33 µM) | MIC (Eubacterium leutum; Eubacterium, read-out: MIC Eubacterium leutum): 0.25 µg/mL (≈ 0.666 µM) | MIC Eubacterium leutum (Eubacterium leutum): 0.5 µg/mL (≈ 1.33 µM) | MIC [6]: 1 µg/mL (≈ 2.66 µM) | MIC (Fusobacterium necrogenes): 0.5 µg/mL (≈ 1.33 µM)
